From the NIST ThermoML archive (doi:10.1021/acs.jced.8b00517)
Numbers after ± are expanded uncertainties.

Columns and labels:
[1] = refractive index (Na D-line) (dimensionless); details: 293.15 K; 101.33 kPa; Liquid; Standard Abbe refractometry
[2] = Liquid; for mass density: 293.15 K, 101.33 kPa, Vibrating tube method; for vapor or sublimation pressure: Ebulliometric method (Recirculating still)
[3] = Boiling temperature at pressure P; details: Liquid, Ebulliometric method (Recirculating still)

SMILES	refractive index [1]	mass density [2]	Boiling temperature at pressure P ([3]; 19.9 kPa)	Boiling temperature at pressure P ([3]; 34.33 kPa)	Boiling temperature at pressure P ([3]; 39.89 kPa)	Boiling temperature at pressure P ([3]; 49.89 kPa)	Boiling temperature at pressure P ([3]; 58.58 kPa)	Boiling temperature at pressure P ([3]; 69.3 kPa)	Boiling temperature at pressure P ([3]; 79.88 kPa)	Boiling temperature at pressure P ([3]; 89.88 kPa)	Boiling temperature at pressure P ([3]; 98.88 kPa)	vapor or sublimation pressure ([2]; 343.15 K)	vapor or sublimation pressure ([2]; 358.15 K)	vapor or sublimation pressure ([2]; 363.15 K)
CC(C)CO [2-methyl-1-propanol]	1.3959 ± 0.0009	801.49 ± 2 kg/m3												
CCCC(C)=O [pentan-2-one]	1.3906 ± 0.0009	805.86 ± 2 kg/m3	56.44 ± 0.22 °C	70.32 ± 0.22 °C	74.40 ± 0.19 °C	80.62 ± 0.18 °C	85.30 ± 0.17 °C	90.4 ± 0.17 °C	94.76 ± 0.17 °C	98.53 ± 0.16 °C	101.59 ± 0.16 °C	34.4 ± 0.32 kPa	58.64 ± 0.39 kPa	69.36 ± 0.46 kPa
